In patent US20240424477A1, “SYSTEM AND DEVICES FOR REMOVAL OF CONTAMINATES” (priority 2021, published 2024):

Key:
[1] = conventional drinking water treatment, literature; cited from earlier work
MO protein = test: 19F NMR protein-ligand binding (peak height ratio B); parameters: species or system Moringa oleifera; conditions: PFAS 50 mg/L
Experimental: ^19F NMR. ^19F NMR measurements were taken on a Bruker AVANCE III 500 NMR. 3,000 scans were run for each sample with a 1 second relaxation delay. TFMAA was added to each sample as an internal standard. 90% H2O and 10% D20 were used for instrument lock and calibration. PFAS concentrations remained constant at 50 mg/L. […] of sample was used for each run. ^19F NMR spectra were obtained with a spectral width 113636.36 Hz and spectral frequency 470.57 MHz.
Spectrum were analyzed via MestreNova software for phase correction and baseline correction. Peak picking was completed automatically by the software. […] Intensities were normalized by TFMAA peak area at approximately −64.9 ppm. NMR data is included in the Supporting Information. The NMR peak height ratio, B, can be used to determine the relative ranking of binding affinities between protein-ligand complexes. B was calculated using Equation (1)
Where lb is the sum of ligand NMR heights in the presence of protein and lh is the sum of free ligand NMR heights.
^19F NMR. NMR can be used to study protein-ligand interactions by examining changes in peak height, peak width, and chemical shifts. A decrease in peak height indicates the formation of a protein-ligand complex. Previous literature has used ^19F NMR to look at PFAS binding to albumin proteins. In this work, PFAS (ligand) concentrations remain constant while MO protein concentrations were varied.

[2] = when protein concentrations increase

Row | Compound | removal of PFOA and PFOS by coagulation [1] | binding affinity to MO protein (NMR peak height ratio, B) (MO protein; [2]) | binding affinity to MO protein (NMR peak height ratio, B) (MO protein; lower protein concentrations)
1 | alum | about 20% |  | 
2 | [Cl][Fe]([Cl])[Cl] [FeCl3, ferric chloride] | about 20% |  | 
3 | O=C(O)C(F)(F)C(F)(F)C(F)(F)C(F)(F)C(F)(F)C(F)(F)C(F)(F)F [PFOA, perfluorooctanoic acid] |  | similar | 
4 | O=S(=O)(O)C(F)(F)C(F)(F)C(F)(F)C(F)(F)C(F)(F)C(F)(F)C(F)(F)C(F)(F)F [PFOS, perfluorooctanesulfonic acid] |  | similar | stronger affinity than MO-PFOA
